What all share (format): cell-based
Series [1] deals with HIV-1 gp160 (from the HXB2 HIV strain). Briefly: Cell/cell fusion assay (HEK-293 expressing HIV-1 tat, rev, gp160 with HOS hCXCR4/hCCR5/hCD4/pHIV-LTR-luciferase cells). The conditions noted are these: Human immunodeficiency virus 1, HXB2, HEK293, 24 h, read-out: Fusion assay (pIC50), luciferase readout after 24 h (converted). From the text:
The complete coding sequences of HIV-1 tat (GenBank Accession No. X07861) and rev (GenBank Accession No. M34378) were cloned into pcDNA3.1 expression vectors containing G418 and hygromycin resistance genes, respectively. The complete coding sequence of the HIV-1 (HXB2 strain) gp160 envelope gene (nucleotide bases 6225-8795 of GenBank Accession No. K03455) was cloned into plasmid pCRII-TOPO. The three HIV genes were additionally inserted into the baculovirus shuttle vector, pFastBacMam1, under the transcriptional control of the CMV promoter. A construction of the pHIV-I LTR containing mutated NFkB sequences linked to the luciferase reporter gene was prepared by digesting pcDNA3.1, containing the G418 resistance gene, with Nru I and Bam HI to remove the CMV promoter. LTR-luc was then cloned into the Nru I/Bam HI sites of the plasmid vector. Plasmid preparations were performed after the plasmids were amplified in Escherichia coli strain DH5-alpha. The fidelity of the inserted sequences was confirmed by double-strand nucleotide sequencing using an ABI Prism Model 377 automated sequencer.
Recombinant BacMam baculoviruses were constructed from pFastBacMam shuttle plasmids by using the bacterial cell-based Bac-to-Bac system. Viruses were propagated in Sf9 (Spodoptera frugiperda) cells cultured in Hink's TNM-FH Insect media supplemented with 10% (v/v) fetal bovine serum and 0.1% (v/v) pluronic F-68 according to established protocols.
Human osteosarcoma (HOS) cells that naturally express human CXCR4 were transfected with human CCR5, human CD4 and the pHIV-LTR-luciferase plasmid using FuGENE 6 transfection reagent. Single cells were isolated and grown under selection condition in order to generate a stable HOS (hCXCR4/hCCR5/hCD4/pHIV-LTR-luciferase) clonal cell line. The cells were maintained in Dulbeccos modified Eagles media supplemented with 10% fetal calf serum (FCS), G418 (400 ug/ml), puromycin (1 ug/ml), mycophenolic acid (40 ug/ml), xanthine (250 ug/ml) and hypoxanthine (13.5 ug/ml) to maintain a selection pressure for cells expressing the LTR-luciferase, hCCR5 and hCD4, respectively. Human embryonic kidney (HEK-293) cells stably transfected to express the human macrophage scavenging receptor (Class A, type 1; GenBank Accession No. D90187), were maintained in DMEM/F-12 media (1:1) supplemented with 10% FCS and 1.5 ug/ml puromycin. The expression of this receptor by the HEK-293 cells enhances their ability to stick to tissue culture treated plasticware.
HEK-293 cells were harvested using enzyme-free cell dissociation buffer. The cells were resuspended in DMEM/F-12 media supplemented with 10% FCS and 1.5 ug/ml and counted. Tranductions were performed by direct addition of BacMam baculovirus containing insect cell media to cells. The cells were simultaneously transduced with BacMam baculovirus expressing HIV-1 tat, HIV-1 rev and HIV-1 gp160 (from the HXB2 HIV strain). Routinely an MOI of 10 of each virus was added to the media containing the cells. 2 mM butyric acid was also added to the cells at this stage to increase protein expression in transduced cells. The cells were subsequently mixed and seeded into a flask at 30 million cells per T225. The cells were incubated at 37° C., 5% CO2, 95% humidity for 24 h to allow for protein expression.
HEK and HOS cells were harvested in DMEM/F-12 media containing 2% FCS and DMEM media containing 2% FCS, respectively, with no selection agents added. Compounds were plated as 1 ul spots in 100% DMSO on a 96-well CulturPlate plates. HOS cells (50 ul) were added first to the wells, followed immediately by the HEK cells (50 ul). The final concentration of each cell type was 20,000 cells per well. Following these additions, the cells were returned to a tissue culture incubator (37° C.; 5% CO2/95% air) for an additional 24 h.
Following the 24 h incubation, total cellular luciferase activity was measured using the LucLite Plus assay kit (Packard, Meridien, Conn.). […]

For series [2], the system named is HIV-1 IIIB (T-tropic, CXCR4 utilizing). In words: HOS HIV-1 infectivity assay. The method, boiled down:
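Blockade of infection is measured in HOS cells carrying hCD4, hCXCR4, hCCR5 and an HIV-LTR-driven luciferase, using virus grown in human peripheral blood lymphocytes. After 96 h, Steady-Glo luminescence reports infection, while CellTiter-Glo gauges cytotoxicity without virus.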

A short description of series [3]: Compound cytotoxicity in the absence of virus addition (CellTiter-Glo). The conditions noted are these: human; non-infected HOS cultures; read-out: Cytotox (pIC50) (converted). The procedure:
Compounds were profiled against two HIV-1 viruses, the M-tropic (CCR5 utilizing) Ba-L strain and the T-tropic (CXCR4 utilizing) IIIB strain. Both viruses were propagated in human peripheral blood lymphocytes. Compounds were tested for there ability to block infection of the HOS cell line (expressing hCXCR4/hCCR5/hCD4/pHIV-LTR-luciferase) by either HIV-1 Ba-L or HIV-1 IIIB. Compound cytotoxicity was also examined in the absence of virus addition.
HOS cells (expressing hCXCR4/hCCR5/hCD4/pHIV-LTR-luciferase) were harvested and diluted in Dulbeccos modified Eagles media supplemented with 2% FCS and non-essential amino acid to a concentration of 60,000 cells/ml. The cells were plated into 96-well plates (100 ul per well) and the plates were placed in a tissue culture incubator (37° C.; 5% CO2/95% air) for a period of 24 h.
Subsequently, 50 ul of the desired drug solution (4 times the final concentration) was added to each well and the plates were returned to the tissue culture incubator (37° C.; 5% CO2/95% air) for 1 h. Following this incubation 50 ul of diluted virus was added to each well (approximately 2 million RLU per well of virus). The plates were returned to the tissue culture incubator (37° C.; 5% CO2/95% air) and were incubated for a further 96 h.
Following this incubation the endpoint for the virally infected cultures was quantified following addition of Steady-Glo Luciferase assay system reagent (Promega, Madison, Wis.). Cell viability or non-infected cultures was measured using a CellTiter-Glo luminescent cell viability assay system (Promega, Madison, Wis.). All luminescent readouts are performed on a Topcount luminescence detector (Packard, Meridien, Conn.).
On the technique in general: Cellular ATP, detected with luciferase, serves as a proxy for viable cell number.

Another series deals with T1, human CXCR4 (Homo sapiens, UniProt P61073).
T1 construct: expressed in transfected cells; host or cells: HEK-293 cells (stably expressing human macrophage scavenging receptor) transduced with human CXCR4 BacMam and Gqi5 BacMam baculoviruses
T1 sequence (P61073 whole entry): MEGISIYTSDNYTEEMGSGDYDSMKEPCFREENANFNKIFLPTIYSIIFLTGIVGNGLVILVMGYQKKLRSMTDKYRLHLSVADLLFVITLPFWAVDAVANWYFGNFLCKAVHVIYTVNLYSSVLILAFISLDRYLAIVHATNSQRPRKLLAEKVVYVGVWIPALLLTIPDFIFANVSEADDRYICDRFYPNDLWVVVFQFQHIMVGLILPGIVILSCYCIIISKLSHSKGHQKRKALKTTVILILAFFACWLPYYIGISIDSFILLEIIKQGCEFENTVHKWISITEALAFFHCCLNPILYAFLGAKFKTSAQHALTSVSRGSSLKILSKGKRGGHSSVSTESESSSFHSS
Briefly: Functional FLIPR assay (block of SDF-1 alpha induced [Ca2+]i change). The conditions noted are these: HEK-293 cells with human CXCR4 BacMam and Gqi5 BacMam; antagonism of SDF-1 alpha; read-out: Functional assay (pIC50) (converted). As to the method:
Human embryonic kidney (HEK-293) cells were maintained and harvested as described above. Cells were plated in 96-well, black clear bottom, poly-lysine coated plates at a concentration of 40,000 cells per well in a final volume of 100 ul containing human CXCR4BacMam (MOI=25) and Gqi5 BacMam (MOI=12.5). The cells were incubated at 37° C., 5% CO2, 95% humidity for 24 h to allow for protein expression.
After the required incubation time the cells were washed once with 50 ul of fresh serum-free DMEM/F12 media containing probenicid. 50 ul of dye solution was then added to the cells (Calcium Plus Assay Kit Dye; Molecular Devices) was dissolved in 200 ml of the above probenicid/BSA containing media and incubated for 1 h. Cell plates were transferred to a Fluorometric Imaging Plate Reader (FLIPR). Upon addition the effect of the compounds on the change in [Ca^2+]i was examined to determine if the compounds were agonists or antagonists (ability to block SDF-1 alpha activity) at the CXCR4 receptor. IC50 values are determined and pKb values are calculated using the Leff and Dougall equation: KB=IC50/((2+([agonist]/EC50ˆb)ˆ1/b−1) Where IC50 is that defined by the antagonist concentration-response curve [agonist] is the EC80 concentration of agonist used EC50 is that defined by the agonist concentration-response curve b is the slope of the agonist concentration-response curve.

[4] abbreviates: Human immunodeficiency virus 1, IIIB, as determined by the infectivity assay, strain not stated in Table 2, read-out: Activity Level.
The mark [5] stands for this setting: Human immunodeficiency virus 1, HIV-1 IIIB, HOS cells, 96 h, luciferase readout, read-out: HOS (3B).

Structures are written as SMILES. Where two headings read alike, the source gives them in different places.

Regarding `CN(Cc1nc2cccc(C(=O)NCCc3c[nH]cn3)c2n1C)C1CCCc2cccnc21` (stereo not shown) [Example 7, N-[2-(1H-Imidazol-4-yl)ethyl]-1-methyl-2-{[methyl(5,6,7,8-tetrahydro-8-quinolinyl)amino]methyl}-1H-benzimidazole-7-carboxamide], the IC50 in series [1] was 55 nM; in series [2] (setting [4]), less than 100 nM; in series [2] (setting [5]), 8 nM; at human CXCR4, 8.51 nM. For the same compound, the IC50 at 96 h in series [3] was more than 100000 nM.
With `CN(Cc1nc2cccc(C(=O)N3CCNCC3)c2n1C)C1CCCc2cccnc21` (stereo not shown) [Example 8, N-Methyl-N-{[1-methyl-7-(1-piperazinylcarbonyl)-1H-benzimidazol-2-yl]methyl}-5,6,7,8-tetrahydro-8-quinolinamine], the IC50 in series [1] is 53.7 nM; in series [2] (setting [4]) it was less than 100 nM; in series [2] (setting [5]) it was 43 nM; on human CXCR4, 33.9 nM. For the same compound, the IC50 at 96 h in series [3] was more than 100000 nM.
Turning to `CN(Cc1nc2c(C(=O)NCCc3c[nH]cn3)cccc2n1C)C1CCCc2cccnc21` (stereo not shown) [Example 9, N-[2-(1H-Imidazol-4-yl)ethyl]-1-methyl-2-{[methyl(5,6,7,8-tetrahydro-8-quinolinyl)amino]methyl}-1H-benzimidazole-4-carboxamide], the IC50 in series [1] is 75.9 nM; in series [2] (setting [4]), less than 100 nM; in series [2] (setting [5]) it was 56 nM; on human CXCR4 it was 91.2 nM. Moreover, the IC50 at 96 h in series [3] was more than 100000 nM.
On the same counts, the results for `CN(Cc1nc2c(C(=O)N3CCNCC3)cccc2n1C)C1CCCc2cccnc21` (stereo not shown) [Example 10, N-Methyl-N-{[1-methyl-4-(1-piperazinylcarbonyl)-1H-benzimidazol-2-yl]methyl}-5,6,7,8-tetrahydro-8-quinolinamine] are 1910 nM, 500 to 10000 nM, 840 nM, 1410 nM and more than 100000 nM.
With `CN(Cc1nc2cccc(C(=O)NCCCCN)c2[nH]1)C1CCCc2cccnc21` (stereo not shown) [Example 11, N-(4-Aminobutyl)-2-{[methyl(5,6,7,8-tetrahydro-8-quinolinyl)amino]methyl}-1H-benzimidazole-4-carboxamide], the IC50 in series [1] is 741 nM; in series [2] (setting [4]) it was 100 to 500 nM; in series [2] (setting [5]) it was 395 nM; at human CXCR4 it was 257 nM. The IC50 at 96 h in series [3] is more than 100000 nM.
As to `CC(C)CN1CCN(c2cccc3[nH]c(CN(C)C4CCCc5cccnc54)nc23)CC1` (stereo not shown) [Example 36, N-methyl-N-({4-[4-(2-methylpropyl)-1-piperazinyl]-1H-benzimidazol-2-yl}methyl)-5,6,7,8-tetrahydro-8-quinolinamine], the IC50 in series [2] (setting [4]) was less than 100 nM; in series [2] (setting [5]) it was 50 nM. In addition, in series [3], the IC50 at 96 h is more than 100000 nM.
Consider `CN1CCN(c2cccc3nc(CN(CCO)[C@H]4CCCc5cccnc54)n(C)c23)CC1` [Example 180, 2-{{[1-Methyl-7-(4-methyl-1-piperazinyl)-1H-benzimidazol-2-yl]methyl}[(8S)-5,6,7,8-tetrahydro-8-quinolinyl]amino}ethanol], for which the IC50 in series [2] (setting [4]) was less than 100 nM.
Take `CN1CCN(c2cccc3nc(CN(CCCO)[C@H]4CCCc5cccnc54)n(C)c23)CC1` [Example 181, 3-{{[1-Methyl-7-(4-methyl-1-piperazinyl)-1H-benzimidazol-2-yl]methyl}[(8S)-5,6,7,8-tetrahydro-8-quinolinyl]amino}-1-propanol]: in series [2] (setting [4]), the IC50 is less than 100 nM.
Same read-out and setting: the same measure for `CN1CCN(c2cccc3nc(CNC4CCc5cccnc54)[nH]c23)CC1` (stereo not shown) [Example 182, N-{[4-(4-Methyl-1-piperazinyl)-1H-benzimidazol-2-yl]methyl}-6,7-dihydro-5H-cyclopenta[b]pyridin-7-amine]: 100 to 500 nM; for `CN1CCN(c2cccc3nc(CN(C)C4CCc5cccnc54)[nH]c23)CC1` (stereo not shown) [Example 183, N-Methyl-N-{[4-(4-methyl-1-piperazinyl)-1H-benzimidazol-2-yl]methyl}-6,7-dihydro-5H-cyclopenta[b]pyridin-7-amine]: less than 100 nM; for `CN1CCN(c2cccc3nc(CNC4CCCCc5cccnc54)[nH]c23)CC1` (stereo not shown) [Example 184, N-{[4-(4-methyl-1-piperazinyl)-1H-benzimidazol-2-yl]methyl}-6,7,8,9-tetrahydro-5H-cyclohepta[b]pyridin-9-amine]: less than 100 nM.
On the same count and under the same terms, the same measure for `CN1CCN(c2cccc3nc(CN(C)C4CCCCc5cccnc54)[nH]c23)CC1` (stereo not shown) [Example 185, N-methyl-N-{[4-(4-methyl-1-piperazinyl)-1H-benzimidazol-2-yl]methyl}-6,7,8,9-tetrahydro-5H-cyclohepta[b]pyridin-9-amine]: less than 100 nM.

These data come from patent publication US20080045537A1, “Chemical Compounds” (priority 2004, published 2008).
